Data on one molecule can be found in patent publication US8324282B2, “Alkylating agent combinations in the treatment of cancer” (Case Western Reserve University, priority 1999, dated 2012).

For series [1], the system named is DLD1 cells and HCT116 cells. As to the kind of experiment: Potentiation of TMZ cytotoxicity by compound A in tumor cells. Type of series: cell-based. How it is done: (§1) On the basis of a similar molecular reaction to MX, (e.g., a primary amine with the carbonyl group of the abasic site), we tested whether a compound (Compound A) would have the ability to bind to AP site generated by TMZ and enhance the killing effect of TMZ. A has a MX-like structure to bind to AP site and also has fluorescence molecules to provide a signal for direct detection of modified AP sites using cellular image. […] In in vitro study, we observed A at non-toxic concentrations (1 mM) sensitized cells to TMZ-cytotoxicity 2-3-fold. In a xenograft model, A (2 mg/kg) combined with TMZ (80 mg/kg) enhanced anti-tumor effect in HCT116 and DLD1, two xenograft tumors with very high resistance to TMZ. Tumor growth delays were 13 days in HCT116 and 12 days in DLD1 treated with the combination of A and TMZ over TMZ alone. Thus, A has a similar effect to MX on interruption of BER and can potentiate chemotherapeutic agents such as alkylating agents. Results are depicted in FIGS. 14-16.

The subject of series [2] is AP sites in calf thymus DNA. As to the kind of experiment: Competitive AP site binding assayed by Aldehyde Reactive Probe (ARP). An excerpt: 1. Analysis of chemical—modified AP Sites assayed by Aldehyde Reactive Probe (ARP). This is a competitive assay to measure the reactivity with AP site between ARP reagent (Dojindo Molecular Technologies Inc., Gaithersburg, Md.) and the screening compounds. ARP and MX have a similar reactivity with AP sites. They react specifically with an aldehyde group that is open ring form of the AP sites. Thus this assay will allow identification of compounds with potential to block AP site repair based on the binding affinity and efficiency to AP sites of screening compounds compared to ARP and MX.
a. AP site standard preparation: AP sites were produced in a calf thymus DNA by heat/acid-buffer solution. Intact calf thymus DNA was added to sodium citrate buffer (10 mM sodium citrate containing 10 mM NaH2PO4 and 10 mM NaCl, pH 5.0) and held at 70° C. for 30 min. The reaction was stopped by chilling rapidly on ice, and the DNA was then precipitated with cold ethanol, washed with 70% ethanol, dried, and resuspended in sterilized distilled water.
b. […] After NC membrane was rinsed with washing buffer containing NaCl (0.26 M), EDTA (1 mM), Tris-HCI (20 mM), and Tween 20 (1%), ARP-AP sites are visualized with ECL reagents (Amersham Corp.) (FIG. 22A) and quantitated by scanning densitometer (FIG. 22B).

In the next series the test system is AP sites in DNA. As to the kind of experiment: Cellular image of fluorescent A-modified AP sites. It counts as cell-based. The following applies: A alone. As to the method:
as §1

Another series deals with AP-endonuclease (APE). As to the kind of experiment: AP site cleavage by AP-endonuclease (APE). Type of series: biochemical. As to the method: 2. AP sites cleavaged by AP-endonuclease (APE). […] The assay may be performed as follows (see also FIGS. 23A and B):
a. AP site is prepared by replacing single nucleoside with deoxyuridine in duplex oligonucleotides (40 mer).
b. Regular AP site is produced in the duplex oligonucleotides by human uracil DNA glycosylase (LIDGase, Trevigen, Gaithersburg, Md.) to remove the uracil residue.
c. To generate MX-adducted AP site substrates: the UDG-treated duplex oligonucleotides are mixed with 10 mM MX in buffer containing 10 mM KPO4, pH 7.1 and incubated at 37° C. After 30 min, the substrates are recovered by ethanol precipitation, lyophilized, resuspended in water, and stored at −20° C.
d. APE-cleavage reaction: DNA substrates containing either regular AP-sites or chemicalmodified AP sites are incubated with APE (Trevigen, Gaithersburg, Md.) for 30 min and reactants are precipitated with 100% cold ethanol, washed with 70% ethanol and resuspended in TE buffer. The reactants are resolved by denaturing 20% polyacrylamide gel electrophoresis and visualized by silver staining (Silver Staining Kit, Pharmacia Biotech).

Regarding `NNC(=S)Nc1ccc(-c2c3ccc(=O)cc-3oc3cc(O)ccc23)c(C(=O)O)c1` [Compound A], the “cytotoxicity of A alone” value in series [1] (1 mM) was “non-toxic”. Besides, in series [1] (A at 1 mM), the “sensitization to TMZ-cytotoxicity” value was 2-3 fold. Moreover, the “binding to AP sites assayed with ARP” value in series [2] is “able to bind to AP sites”. The fluorescence signal entry with AP sites in DNA was “no visualized fluorescence signal”. For the same molecule, the “cleavage of modified AP sites by APE” value in the series on AP-endonuclease (APE) was “refractory to cleavage”.
